Reference: PMC7651685 (Psychopharmacology, 2020)
Several values for one entry are separate records, joined by “and”; a condition that tells them apart may be missing. Equal entries are not always repeated. Structures can show the parent of a compound that is named as a salt. Where two headings read alike, the source gives them in different places.

Experiments:
D2 receptors = experiment: [11C]-Raclopride PET: elevation of synaptic dopamine
Description: Two female rhesus macaques (weight, 8.4 ± 0.2 kg; age, 16.6 ± 0.5) were scanned with [^11C]-Raclopride a total of 8 times, each under 4 scanning conditions per test agent. All scans were performed with [^11C]-Raclopride (tracer mass limited to 0.25 μg/kg) administered as an intravenous (i.v.) bolus + constant infusion (3 min bolus +132 min infusion; Kbol = 60 min; injected dose 5.8 ± 1.0 mCi). Scan data collection began simultaneously with tracer injection using the Siemens FOCUS 220 PET scanner. The scan data was acquired for 135 min and binned into sinograms with the following frame timing: 6 × 30 s; 3 × 1 min; 2 × 2 min; and 25 × 5 min. Prior to each tracer injection, a transmission scan was performed with an external gamma source for attenuation correction.
Experiment day 1 consisted of an initial [^11C]-Raclopride injection with MPH given i.v. at 45 min post-start of tracer administration under tracer steady-state conditions (displacement experiment). A second [^11C]-Raclopride scan was initiated ~ 2.5–3.5 h after the start of scan 1. Experiment day 2 consisted of a MPH pre-block initiated ~ 30 min prior to the first scan. A second scan was again initiated ~ 2.5–3.5 h after the start of scan 1. This same 2-day scanning paradigm was completed for both subjects and repeated using DAS in place of MPH. The test agent doses used were 0.2 mg/kg for DAS and 0.5 mg/kg for MPH. A minimum of 2-week recovery time was allowed between scans with the same subject.
Dynamic scan data were reconstructed with a filtered back-projection algorithm with corrections for attenuation, normalization, scatter, and randoms. ROIs were manually delineated on a single representative anatomical rhesus monkey magnetic resonance image (MRI) registered to a template image. Regions used in this study were caudate and putamen with the cerebellum as the reference region. Registration parameters were obtained to apply the ROIs to individual PET scans, and regional TACs were generated for the ROIs. Apparent binding potential (BPND) curves (target-to-cerebellum ratio - 1) were calculated for putamen and caudate by pooling the data from the 4 injections for each animal/drug combination. The following models were used to describe the apparent BPND curves. Model 1 is based on a gamma function where the occupancy increases, reaches a maximum, and then decreases, and both phases can be measured in the study. Model 2 has only increasing occupancy with time, approaching an asymptotic value. • Model 1: Four-parameter model (gamma function):
The change of BPND over time is modeled using a gamma function. BPNDt=BP01−At−t0^αexp−βt−t0t≥t0
The model can be reformulated as follows: BPNDt=BP01−Occ^maxt−t0/tmax−t0^αexpα1−t−t0/tmax−t0t≥t0α≡−ln2/1−τ+lnττ≡t1/2,R−t0/tmax−t0τ<1ort1/2,F−t0/tmax−t0τ>1 where t0 is the known time of drug administration and BP0 is the apparent BPND at time t0. The maximum occupancy, Occ^max, is obtained at time, tmax. The occupancy rises to 50% of Occ^max at the time, t1/2,R (< tmax), and falls to 50% of Occ^max at time, t1/2,F (> tmax). The 4 parameters of this model are BP0, Occ^max, tmax, and t1/2,R (or t1/2,F). • Model 2: Three-parameter model: BPNDt=BP01−Occ^max1−exp−βt−t0,β=ln2/t1/2,R−t0t≥t0
The parameters of this model are BP0, Occ^max, and t1/2,R.

[1] = Extrapolated permeability and half-time to reach brain equilibrium (equation of Liu et al.)
Text: While lipid solubility and protein binding influences brain penetration, it appears that it is the combination of these two properties that influences the rate of brain penetration of a drug (Liu et al [2005]). […] The half-time to reach brain equilibrium (t1/2 equil) can be estimated by the following equation:
t1/2 equil = Vbln2/(PS.fu,brain)
where Vb is brain volume, PS is the permeability surface area product, P is the permeability rate, S is the surface area and fu is the unbound (free) drug brain concentration.
For comparative purposes between MPH and DAS, we can assume Vb and surface area are the same for both drugs, and the above equation becomes: t1/2equil∝1/P.fu,brain
As mentioned above, plasma protein binding of DAS and MPH are ~ 0.97 (or ~ 97%) and ~ 0.14 (or 14%) respectively, and the free plasma concentration of DAS is 0.03 and for MPH, it is 0.86. Since free drug plasma concentration is equal to free drug brain concentration, we can apply the free drug plasma concentration values of DAS and MPH together with the extrapolated permeability for DAS (12P) and MPH (P) to approximate t1/2 equil for both drugs, i.e.,

[2] = tested on: dopamine efflux in the nucleus accumbens; design: method as in Rowley et al. [2017]; conditions: rat nucleus accumbens microdialysis; ref Rowley et al. [2017]; cited from earlier work
DAT = conditions: cited from earlier work
[3] = cited from earlier work
plasma protein = conditions: cited from earlier work
[4] = MPH 0.5 mg/kg i.v., model 1 fit
[5] = DAS 0.2 mg/kg i.v., model 2 fit

Row | Structure (SMILES) | Maximum reduction in [11C]-raclopride binding (Occmax) in caudate and putamen (D2 receptors; [4]) [%] | Time for half-maximal displacement (t1/2,R) of [11C]-raclopride (D2 receptors; [4]) [h] | Time for half-maximal displacement of [11C]-raclopride shorter than for DAS (D2 receptors; MPH 0.5 mg/kg relative to DAS 0.2 mg/kg) [fold] | Faster than DAS in reaching brain equilibrium ([1]; MPH relative to DAS, from t1/2equil) [fold] | Time of peak of dopamine efflux [2] [min] | DAT occupancy OC50 (DAT; ref Spencer et al. [2006]) [ng/mL] | Time to peak (oral absorption) ([3]; oral, ref Koblan et al. [2016]) [h] | Plasma protein binding (plasma protein; ref Faraj et al. [1974]) [%] | Maximum reduction in [11C]-raclopride binding (Occmax) in caudate and putamen (D2 receptors; [5]) [%] | Time for half-maximal displacement (t1/2,R) of [11C]-raclopride (D2 receptors; [5]) [h] | Time to 50% maximum displacement of [11C]-Raclopride / elevation of synaptic DA slower than MPH (D2 receptors; DAS relative to MPH) | t1/2equil (half-time to reach brain equilibrium), proportional to ([1]; 1/(P.fu,brain) with extrapolated permeability (DAS 12P, MPH P) and free plasma fraction) [P] | Time to reach maximum effect on dopamine efflux post-dose [2] | Reported human DAT RO50 (DAT; human, ref DeLorenzo et al. [2011], Hopkins et al. [2017]) [ng/mL] | DAT occupancy OC50 (DAT; ref DeLorenzo et al. [2011]) [ng/mL] | t1/2 (elimination) ([3]; human, in vivo, po) [h] | tmax ([3]; oral administration in humans) [h] | Plasma protein binding (plasma protein; Data-on-file, ref Sunovion report 360–455) | Plasma protein binding (fraction) (plasma protein; as fraction, Sunovion report 360–455 (DAS))
1 | COC(=O)C(c1ccccc1)C1CCCCN1 (racemic) [MPH, (±)-Methyl α-Phenyl-α-(2-piperidyl)acetate hydrochloride, reference compound] | 27 | 0.383 | 4 | > 2 | 40 | 6 | 2 to 3 | < 14 |  |  |  |  |  |  |  |  |  |  | 
2 | N[C@@H]1CC[C@@H](c2ccc(Cl)c(Cl)c2)c2ccccc21 [DAS, (1R,4S)-4-(3,4-dichlorophenyl)-1,2,3,4-tetra-hydronaphthalen-1-amine] |  |  |  |  |  |  |  |  | 29 | 1.47 | ~ 4 fold and 4 fold | 2.77 | up to 2 h | 4.5 to 6 | 4 | 47 to 77 | 10 to 12 | ~ 97% | ~ 0.97
